The source made the active and inactive calls. The calls are words filed in the database; no cut-off is given here.

This assay concerns Drosophila. Description: Short term memory enhancement in human Abeta42 transgenic Drosophila alzheimers disease model dosed for 6 days by pavlovian olfactory learning assay after 8 days. It counts as functional, organism-based.
On to `COC(=O)C1=CO[C@@H](O[C@@H]2O[C@H](COC(=O)/C=C/c3cc(OC)c(O)c(OC)c3)[C@@H](O)[C@H](O)[C@H]2O)[C@@H]2C(CO)=CC[C@H]12`, for which the result was Active.

Consider `COC(=O)C1=CO[C@@H](O[C@@H]2O[C@H](CO)[C@@H](O)[C@H](O)[C@H]2O)[C@@H]2C(CO)=CC[C@H]12`, for which the result was Active. Under `COC(=O)C1=CO[C@@H](O[C@@H]2O[C@H](CO)[C@@H](O)[C@H](O)[C@H]2O)[C@@H]2C(COC(C)=O)=CC[C@H]12` stands “Active”; under `COC(=O)C1=CO[C@@H](O[C@@H]2O[C@H](CO)[C@@H](O)[C@H](O)[C@H]2O)[C@@H]2C(COC(=O)CCC(=O)O)=CC[C@H]12`, “Active”; under `COc1cc(/C=C/C(=O)OC[C@H]2O[C@@H](OCC3=CC[C@H]4[C@@H]3COC(=O)[C@@H]4CO)[C@H](O)[C@@H](O)[C@@H]2O)cc(OC)c1O`, “Active”. As for `COc1cc(/C=C/C(=O)OC[C@H]2O[C@@H](OC[C@H]3C(=O)OC[C@@H]4C(CO)=CC[C@@H]43)[C@H](O)[C@@H](O)[C@@H]2O)cc(OC)c1O`, the entry is “Active”; as for `COC(=O)C1=CO[C@@H](O[C@@H]2O[C@H](COC(=O)/C=C/c3ccc(O)cc3)[C@@H](O)[C@H](O)[C@H]2O)[C@@H]2C(CO)=CC[C@H]12`, “Active”; as for `COC(=O)C1=CO[C@@H](O[C@@H]2O[C@H](COC(C)=O)[C@@H](O)[C@H](O)[C@H]2O)[C@@H]2C(CO)=CC[C@H]12`, “Active”.

Values taken from ChEMBL document CHEMBL1154206, “Bioactive iridoid glucosides from the fruit of Gardenia jasminoides” (J Nat Prod, 2009).
